Reference: PMC4512239 (Clinical cancer research : an official journal of the …, 2015)
“Also recorded” adds a separate entry of the source.

Experiment: phase I safety and tolerability
Assay type: in vivo, human

## CNC(=O)c1cccc(-c2ccc3c(N4CCOC[C@@H]4C)nc(N4CCOC[C@@H]4C)nc3n2)c1 [AZD2014]
Part A 70mg BD solution (N=5)
  Fatigue, Any grade: 3 (60.0) Number (%) of patients
  Fatigue, CTCAE grade 1-2: 2 (40.0) Number (%) of patients
  Hypokalemia, Any grade: 1 (20.0) Number (%) of patients
  Hypokalemia, CTCAE grade 1-2: 1 (20.0) Number (%) of patients
  Hypokalemia, CTCAE grade >=3: 0 Number (%) of patients
  Lower respiratory tract infection, Any grade: 1 (20.0) Number (%) of patients
  Lower respiratory tract infection, CTCAE grade 1-2: 1 (20.0) Number (%) of patients
  Lower respiratory tract infection, CTCAE grade >=3: 0 Number (%) of patients
  Mucositis, Any grade: 5 (100.0) Number (%) of patients
  Mucositis, CTCAE grade 1-2: 3 (60.0) Number (%) of patients
  Mucositis, CTCAE grade >=3: 2 (40.0) Number (%) of patients
  Nausea, Any grade: 3 (60.0) Number (%) of patients
  Nausea, CTCAE grade 1-2: 3 (60.0) Number (%) of patients
  Nausea, CTCAE grade >=3: 0 Number (%) of patients
  Pruritus, Any grade: 0 Number (%) of patients
  Pruritus, CTCAE grade 1-2: 0 Number (%) of patients
  Pruritus, CTCAE grade >=3: 0 Number (%) of patients
  Rash, Any grade: 1 (20.0) Number (%) of patients
  Rash, CTCAE grade 1-2: 0 Number (%) of patients
  Rash, CTCAE grade >=3: 1 (20.0) Number (%) of patients
  Vomiting, Any grade: 0 Number (%) of patients
  Vomiting, CTCAE grade 1-2: 0 Number (%) of patients
  Vomiting, CTCAE grade >=3: 0 Number (%) of patients
Part A 100mg BD solution (N=4)
  Anemia, Any grade: 1 (25.0) Number (%) of patients
  Anemia, CTCAE grade 1-2: 0 Number (%) of patients
  Anemia, CTCAE grade >=3: 1 (25.0) Number (%) of patients
  Back pain, Any grade: 2 (50.0) Number (%) of patients
  Back pain, CTCAE grade 1-2: 2 (50.0) Number (%) of patients
  Back pain, CTCAE grade >=3: 0 Number (%) of patients
  Constipation, Any grade: 1 (25.0) Number (%) of patients
  Constipation, CTCAE grade 1-2: 1 (25.0) Number (%) of patients
  Constipation, CTCAE grade >=3: 0 Number (%) of patients
  Cough, Any grade: 0 Number (%) of patients
  Cough, CTCAE grade 1-2: 0 Number (%) of patients
  Cough, CTCAE grade >=3: 0 Number (%) of patients
  Decreased appetite, Any grade: 4 (100.0) Number (%) of patients
  Decreased appetite, CTCAE grade 1-2: 4 (100.0) Number (%) of patients
  Decreased appetite, CTCAE grade >=3: 0 Number (%) of patients
  Diarrhea, Any grade: 1 (25.0) Number (%) of patients
  Diarrhea, CTCAE grade 1-2: 1 (25.0) Number (%) of patients
  Diarrhea, CTCAE grade >=3: 0 Number (%) of patients
  Dry mouth, Any grade: 1 (25.0) Number (%) of patients
  Dry mouth, CTCAE grade 1-2: 1 (25.0) Number (%) of patients
  Dry mouth, CTCAE grade >=3: 0 Number (%) of patients
  Dyspnea, Any grade: 2 (50.0) Number (%) of patients
  Dyspnea, CTCAE grade 1-2: 2 (50.0) Number (%) of patients
  Dyspnea, CTCAE grade >=3: 0 Number (%) of patients
  Fatigue, Any grade: 4(100.0) Number (%) of patients
  Fatigue, CTCAE grade 1-2: 2 (50.0) Number (%) of patients
  Fatigue, CTCAE grade >=3: 2 (50.0) Number (%) of patients
  Hypokalemia, Any grade: 0 Number (%) of patients
  Hypokalemia, CTCAE grade 1-2: 0 Number (%) of patients
  Hypokalemia, CTCAE grade >=3: 0 Number (%) of patients
  Lower respiratory tract infection, Any grade: 0 Number (%) of patients
  Lower respiratory tract infection, CTCAE grade 1-2: 0 Number (%) of patients
  Lower respiratory tract infection, CTCAE grade >=3: 0 Number (%) of patients
  Mucositis, Any grade: 3 (75.0) Number (%) of patients
  Mucositis, CTCAE grade 1-2: 3 (75.0) Number (%) of patients
  Mucositis, CTCAE grade >=3: 0 Number (%) of patients
  Nausea, Any grade: 4 (100.0) Number (%) of patients
  Nausea, CTCAE grade 1-2: 4 (100.0) Number (%) of patients
  Nausea, CTCAE grade >=3: 0 Number (%) of patients
  Pruritus, Any grade: 0 Number (%) of patients
  Pruritus, CTCAE grade 1-2: 0 Number (%) of patients
  Pruritus, CTCAE grade >=3: 0 Number (%) of patients
  Rash, Any grade: 0 Number (%) of patients
  Rash, CTCAE grade 1-2: 0 Number (%) of patients
  Rash, CTCAE grade >=3: 0 Number (%) of patients
  Vomiting, Any grade: 4 (100.0) Number (%) of patients
  Vomiting, CTCAE grade 1-2: 4 (100.0) Number (%) of patients
  Vomiting, CTCAE grade >=3: 0 Number (%) of patients
RP2D of 50 mg BD
  grade 3 or 4 hyperglycemia: no grade 3 or 4 hyperglycemia was seen
At the MTD (50 mg BD)
  fatigue, most common AEs: 78%
  fatigue, nausea and mucositis equal to or greater than grade 3, patients: 5%
Dose range 25-100 mg
  nature of the dose limiting toxicities: fatigue and mucositis
oral, continuous twice daily dosing
  recommended phase II dose (RP2D): 50 mg BD
oral, continuous twice daily dosing, solution
  maximally tolerated dose (MTD): 50 mg BD
Phase I study
  pneumonitis: no patients were diagnosed with pneumonitis; also recorded: no instances of pneumonitis
Total (N=56)
  Anemia, Any grade: 9 (16.1) Number (%) of patients
  Anemia, CTCAE grade 1-2: 7 (12.5) Number (%) of patients
  Anemia, CTCAE grade >=3: 2 (3.6) Number (%) of patients
  Back pain, Any grade: 9 (16.1) Number (%) of patients
  Back pain, CTCAE grade 1-2: 8 (14.3) Number (%) of patients
  Back pain, CTCAE grade >=3: 1 (1.8) Number (%) of patients
  Constipation, Any grade: 16 (28.6) Number (%) of patients
  Constipation, CTCAE grade 1-2: 16 (28.6) Number (%) of patients
  Constipation, CTCAE grade >=3: 0 Number (%) of patients
  Cough, Any grade: 12 (21.4) Number (%) of patients
  Cough, CTCAE grade 1-2: 12 (21.4) Number (%) of patients
  Cough, CTCAE grade >=3: 0 Number (%) of patients
  Decreased appetite, Any grade: 26 (46.4) Number (%) of patients
  Decreased appetite, CTCAE grade 1-2: 26 (46.4) Number (%) of patients
  Decreased appetite, CTCAE grade >=3: 0 Number (%) of patients
  Diarrhea, Any grade: 23 (41.1) Number (%) of patients
  Diarrhea, CTCAE grade 1-2: 23 (41.1) Number (%) of patients
  Diarrhea, CTCAE grade >=3: 0 Number (%) of patients
  Dry mouth, Any grade: 10 (17.9) Number (%) of patients
  Dry mouth, CTCAE grade 1-2: 10 (17.9) Number (%) of patients
  Dry mouth, CTCAE grade >=3: 0 Number (%) of patients
  Dyspnea, Any grade: 11 (19.6) Number (%) of patients
  Dyspnea, CTCAE grade 1-2: 9 (16.1) Number (%) of patients
  Dyspnea, CTCAE grade >=3: 2 (3.6) Number (%) of patients
  Fatigue, Any grade: 42 (75.0) Number (%) of patients
  Fatigue, CTCAE grade 1-2: 36 (64.3) Number (%) of patients
  Fatigue, CTCAE grade >=3: 6 (10.7) Number (%) of patients
  Hypokalemia, Any grade: 9 (16.1) Number (%) of patients
  Hypokalemia, CTCAE grade 1-2: 8 (14.3) Number (%) of patients
  Hypokalemia, CTCAE grade >=3: 1 (1.8) Number (%) of patients
  Lower respiratory tract infection, Any grade: 9 (16.1) Number (%) of patients
  Lower respiratory tract infection, CTCAE grade 1-2: 7 (12.5) Number (%) of patients
  Lower respiratory tract infection, CTCAE grade >=3: 2 (3.6) Number (%) of patients
  Mucositis, Any grade: 30 (53.6) Number (%) of patients
  Mucositis, CTCAE grade 1-2: 27 (48.2) Number (%) of patients
  Mucositis, CTCAE grade >=3: 3 (5.4) Number (%) of patients
  Nausea, Any grade: 30 (53.6) Number (%) of patients
  Nausea, CTCAE grade 1-2: 28 (50.0) Number (%) of patients
  Nausea, CTCAE grade >=3: 2 (3.6) Number (%) of patients
  Pruritus, Any grade: 13 (23.2) Number (%) of patients
  Pruritus, CTCAE grade 1-2: 13 (23.2) Number (%) of patients
  Pruritus, CTCAE grade >=3: 0 Number (%) of patients
  Rash, CTCAE grade 1-2: 16 (28.6) Number (%) of patients
  Rash, CTCAE grade >=3: 3 (5.4) Number (%) of patients
  Vomiting, Any grade: 16 (28.6) Number (%) of patients
  Vomiting, CTCAE grade 1-2: 15 (26.8) Number (%) of patients
  Vomiting, CTCAE grade >=3: 1 (1.8) Number (%) of patients
